Experimental data taken from EPA's ToxRefDB 2.

Legend:
mouse = conditions: Subchronic oral toxicity in rodents, b6c3f1, Feed, dose end: 13 week, group: systemic
rat [1] = conditions: Subchronic oral toxicity in rodents, fischer, Feed, dose end: 13 week
rat [2] = conditions: Developmental neurotoxicity study; sprague dawley; Oral; Gavage/Intubation; dose end: 42 PND; group: cannot be grouped; developmental / offspring survival late / [other] / [other]
rat [3] = conditions: Prenatal developmental toxicity study; wistar; Dermal; Topical; dose end: 15 GD; group: developmental; developmental / developmental malformation / bone / supernumerary
rat [4] = conditions: Prenatal developmental toxicity study, wistar, Oral, Gavage/Intubation, dose end: 19 GD
rat [5] = conditions: Prenatal developmental toxicity study, wistar, Oral, Gavage/Intubation, dose end: 20 GD
rabbit = conditions: Prenatal developmental toxicity study, himalayan, Oral, Gavage/Intubation, dose end: 18 GD
rat [6] = conditions: Multigenerational reproductive toxicity study, wistar, Oral, Gavage/Intubation, dose end: 2 generation
[7] = systemic / organ weight / liver / relative to body weight
[8] = group: maternal, reproductive / reproductive performance / estrous cycle / abnormal
[9] = group: systemic, systemic / hematology / mean corpuscular (cell) volume (mcv) / mean corpuscular (cell) volume (mcv) + systemic / hematology / mean …
[10] = group: systemic, systemic / pathology microscopic / kidney / nephropathy
[11] = group: developmental, developmental / developmental malformation / bone / delayed ossification + developmental / developmental malformation / bone / supernumerary…
[12] = group: maternal, systemic / in life observation / body weight / body weight gain + systemic / in life observation / food consumption / food consumption
[13] = group: maternal, systemic / in life observation / body weight / body weight gain + systemic / in life observation / food consumption / food consumption + …
[14] = group: developmental, developmental / developmental malformation / bone / supernumerary
[15] = group: maternal, systemic / in life observation / clinical signs / abnormal respiratory sounds + systemic / in life observation / clinical signs / altered …
[16] = group: developmental, developmental / developmental malformation / bone / arthrogryposis + developmental / developmental malformation / bone / malformation, total
[17] = group: maternal, reproductive / reproductive performance / resorptions / resorptions + systemic / in life observation / body weight / body weight gain + …
[18] = group: offspring, systemic / in life observation / body weight / offspring (pup) weight + systemic / organ weight / spleen / absolute + systemic / organ …
[19] = group: parental, systemic / organ weight / liver / absolute + systemic / organ weight / thymus / absolute + systemic / organ weight / thymus / relative to …
[20] = group: reproductive, reproductive / reproductive performance / estrous cycle / length + reproductive / reproductive performance / estrous cycle / periodicity + …

Cc1cccc([N+](=O)[O-])c1 [3-Nitrotoluene]
LOAEL (mouse; systemic / in life observation / body weight / body weight gain): 743 mg/kg/day
NOAEL (mouse; systemic / in life observation / body weight / body weight gain + systemic / in life observation / food consumption / food consumption + …): 398 mg/kg/day
LEL (mouse; [7]): 114 mg/kg/day
NEL (mouse; [7]): < 114 mg/kg/day
LEL (rat [1]; [8]): 336 mg/kg/day
LOAEL (rat [1]; [8]): > 638 mg/kg/day
NEL (rat [1]; [8]): 172 mg/kg/day
NOAEL (rat [1]; [8]): ≥ 638 mg/kg/day
LOAEL (rat [1]; [9]): 336 mg/kg/day
NOAEL (rat [1]; [9]): 172 mg/kg/day
LEL (rat [1]; [10]): 46 mg/kg/day
NEL (rat [1]; [10]): < 46 mg/kg/day

O=C([O-])c1ccccc1O.[Na+] [Sodium salicylate]
LEL (rat [2]): 12.5 mg/kg/day
LOAEL (rat [2]): > 150 mg/kg/day
NEL (rat [2]): 4.2 mg/kg/day
NOAEL (rat [2]): ≥ 150 mg/kg/day

OC(Cc1ccccc1Cl)(Cn1[nH]cnc1=S)C1(Cl)CC1 (stereo unspecified) [Prothioconazole]
LEL (rat [3]): 100 mg/kg/day
LOAEL (rat [3]): 100 mg/kg/day
NEL (rat [3]): < 100 mg/kg/day
NOAEL (rat [3]): < 100 mg/kg/day
LEL (rat [4]; [11]): 1000 mg/kg/day
LOAEL (rat [4]; [11]): > 1000 mg/kg/day
NEL (rat [4]; [11]): 200 mg/kg/day
NOAEL (rat [4]; [11]): ≥ 1000 mg/kg/day
LEL (rat [4]; [12]): 200 mg/kg/day
LOAEL (rat [4]; [12]): 200 mg/kg/day
NEL (rat [4]; [13]): 40 mg/kg/day
NOAEL (rat [4]; [13]): 40 mg/kg/day
LEL (rat [5]; [14]): 30 mg/kg/day
LOAEL (rat [5]; [14]): 30 mg/kg/day
NEL (rat [5]; [14]): < 30 mg/kg/day
NOAEL (rat [5]; [14]): < 30 mg/kg/day
LEL (rat [5]; [15]): 750 mg/kg/day
LOAEL (rat [5]; [15]): 750 mg/kg/day
NEL (rat [5]; [15]): 150 mg/kg/day
NOAEL (rat [5]; [15]): 150 mg/kg/day
LEL (rabbit; [16]): 10 mg/kg/day
LOAEL (rabbit; [16]): 10 mg/kg/day
NEL (rabbit; [16]): 2 mg/kg/day
NOAEL (rabbit; [16]): 2 mg/kg/day
LEL (rabbit; [17]): 50 mg/kg/day
LOAEL (rabbit; [17]): 50 mg/kg/day
NEL (rabbit; [17]): 10 mg/kg/day
NOAEL (rabbit; [17]): 10 mg/kg/day
LEL (rat [6]; [18]): 750 mg/kg/day
LOAEL (rat [6]; [18]): 750 mg/kg/day
NEL (rat [6]; [18]): 100 mg/kg/day
NOAEL (rat [6]; [18]): 100 mg/kg/day
LOAEL (rat [6]; [19]): 750 mg/kg/day
NEL (rat [6]; [19]): 10 mg/kg/day
NOAEL (rat [6]; [19]): 100 mg/kg/day
LEL (rat [6]; group: parental, systemic / organ weight / thymus / absolute + systemic / organ weight / thymus / relative to body weight + systemic / organ weight / seminal…): 100 mg/kg/day
LEL (rat [6]; [20]): 750 mg/kg/day
LOAEL (rat [6]; [20]): 750 mg/kg/day
NEL (rat [6]; [20]): 100 mg/kg/day
NOAEL (rat [6]; [20]): 100 mg/kg/day
